We go through 3 compounds from patent US7601852B2, “Macrocyclic kinase inhibitors” (Kosan Biosciences Incorporated, priority 2006, dated 2009).

Like-named read-outs stand apart in the source and are kept apart here.

The test system of experiment [1] is COLO829 (B-Raf V600E) human melanoma cancer cell line. Nature of the experiment: Inhibitory concentration against COLO829 cancer cell line. The class given is cell-based. An excerpt:
(§1) The biological activity of compounds III and IV is compared against that of the natural product hypothemycin in Table A. Inhibitory concentrations against three cancer cell lines is provided. COLO829 B is a human melanoma cancer cell line having a B-Raf V600E mutation. HT29 is a human colon cancer cell line also having a B-Raf V600E mutation. SKOV3 is a human […] cancer cell line having wild-type B-Raf. Additionally, Ki and Kinact for ERK2 are provided.

Experiment [2] has as its system HT29 (B-Raf V600E) human colon cancer cell line. The experiment in a line: Inhibitory concentration against HT29 cancer cell line. The class given is cell-based.
Description: as §1

Experiment [3] concerns SKOV3 (wild-type B-Raf) human breast cancer cell line. Nature of the experiment: Inhibitory concentration against SKOV3 cancer cell line. Format: cell-based.
Description: as §1

The next experiment concerns the target ERK2 (Homo sapiens, UniProt P28482). The experiment in a line: ERK2 Binding. The note with it: for kinact: read-out: ERK2 Binding Kinact.
Description: as §1

The test system of a further experiment is panel of 124 kinases. As to conditions: cited from earlier work.
[4] abbreviates: COLO-829, COLO829 human melanoma cell line, B-Raf V600E, read-out: Inhibitory Concentration (IC50) COLO829 (B-Raf V600E).
[5] abbreviates: HT-29, HT29 human colon cancer cell line, B-Raf V600E, read-out: Inhibitory Concentration (IC50) HT29 (B-Raf V600E).
[6] abbreviates: SK-OV-3, SKOV3 cell line, wild-type B-Raf, read-out: Inhibitory Concentration (IC50) SKOV3 (wild-type B-Raf).

Chain of ERK2 (P28482 whole entry, species assumed): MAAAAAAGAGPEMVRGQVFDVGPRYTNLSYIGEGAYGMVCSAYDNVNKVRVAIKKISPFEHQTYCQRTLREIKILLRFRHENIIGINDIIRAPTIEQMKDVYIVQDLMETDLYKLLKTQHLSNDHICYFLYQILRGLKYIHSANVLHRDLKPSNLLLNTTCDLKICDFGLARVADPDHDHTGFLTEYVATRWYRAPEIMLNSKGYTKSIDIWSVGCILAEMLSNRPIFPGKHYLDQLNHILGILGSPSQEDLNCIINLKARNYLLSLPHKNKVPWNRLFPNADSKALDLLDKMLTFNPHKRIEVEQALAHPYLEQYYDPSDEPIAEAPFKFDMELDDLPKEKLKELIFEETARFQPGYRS

As for `COc1cc(O)c2c(c1)[C@H]1O[C@@H]1C[C@H](O)[C@H](O)C(=O)/C=C\C[C@H](C)OC2=O` [Hypothemycin, hypothemycin], the IC50 in experiment [1] (Homo sapiens, COLO-829, read-out: Inhibitory Concentration (IC50) COLO829 (B-Raf V600E)) was found to be 46 nM; in experiment [2] (Homo sapiens, HT-29, read-out: Inhibitory Concentration (IC50) HT29 (B-Raf V600E)) it was 260 nM; in experiment [3] (SK-OV-3, read-out: Inhibitory Concentration (IC50) SKOV3 (wild-type B-Raf)) it was 4000 nM. Besides, at ERK2, affinity was put at a Ki of 2700 ± 800 nM. Besides, the kinact at ERK2 came to 0.005 ± 2e-06 s⁻¹. Further, the “number of kinases without active site cysteine inhibited” value in the experiment on panel of 124 kinases (of 105 kinases not having the active site cysteine) is on record as 2. The “number of active site cysteine kinases inhibited” value in the experiment with panel of 124 kinases (of the 19 kinases having the active site cysteine) is recorded as 18. Further, the “number of kinases inhibited” value in the experiment with panel of 124 kinases (of the whole panel of 124 kinases) was 20.
Consider `C[C@H]1C/C=C\C(=O)[C@@H](O)[C@@H](O)COCc2cc(O)cc(O)c2C(=O)O1` [Compound III], for which the IC50 came out at 360 nM in experiment [1] (setting [4]), 860 nM in experiment [2] (setting [5]) and 74000 nM in experiment [3] (setting [6]). The Ki at ERK2 (read-out: ERK2 Binding Ki) was 3100 ± 400 nM. In addition, on ERK2, the maximal inactivation rate constant (kinact) amounted to 9.1e-05 s⁻¹.
Take `C[C@@H]1/C=C\C(=O)[C@@H](O)[C@@H](O)COCc2cc(O)cc(O)c2C(=O)O[C@H]1C` [IV]: the IC50 was 310 nM in experiment [1] (setting [4]), 1420 nM in experiment [2] (setting [5]) and > 100000 nM in experiment [3] (setting [6]).

As usually defined, the Ki is the dissociation constant of the complex between target and ligand, obtained from inhibition or displacement. Usually kinact stands for the rate constant of inactivation at saturating inhibitor.
